Results from patent US9540325B2, “N1-cyclic amine-N5-substituted phenyl biguanide derivatives, methods of preparing the same and pharmaceutical composition comprising the same” (Immunomet Therapeutics, Inc., priority 2011, dated 2017).

Columns and labels:
HCT116 cells = assay: Measurement of effect of inhibiting cancer cell proliferation (MTT); assay type: cell-based, human; conditions: Homo sapiens; for inhibition at 100 µM: HCT-116, 100 μM, 48 hours, read-out: Cell Growth Inhibition (%) at 100 μM; for GI50: HCT-116, 48 h
Description: HCT116 cells derived from human colorectal cancer (commercially available from the Korean Cell Line Bank) were used, and the effect of inhibiting cancer cell proliferation of the biguanide derivative was confirmed by measuring the concentration value (cell growth inhibition concentration, GIC50) at which cell growth was inhibited by 50% using a 3-(4,5-dimethylthiazol-2-yl)-2,5-diphenyltetrazolium bromide (MTT) reagent.
First, HCT116 cells were put on a 96-well plate and cultured in a DMEM medium containing 10% fetal bovine serum for 16 hours so that the cellcount in each well was approximately 5,000. Subsequently, to obtain the GIC50 value of each compound, culture media were treated with 100 μM, 25 μM, 6.25 μM, 1.56 μM or 0.39 μM of the compound, and then cultured for 48 hours. Metformin hydrochloride was used as the control, and the culture media were treated with 25, 12.5, 2.5, 0.5, 0.1 mM metformin hydrochloride, and then tested in the same manner as described in the derivatives synthesized in the examples. In order to determine whether the cells survived after treatment with the compounds, MTT was added to the culture media which were then cultured for another 3 hours. Formed formazane crystals were dissolved using dimethyl sulfoxide (DMSO), and the absorbance of the resulting solution was measured at 560 nm. After the 48-hour culture, […] was indicated as cell viability (%) according to each treated concentration. A cell viability curve graph was plotted and the concentration (GIC50) value of the compound at which the growth was inhibited by 50% was calculated to confirm the inhibition effect of cancer cell proliferation. Also, the cell growth viability (%) when the concentration of the treated biguanide derivative and the metformin hydrochloride as the control were 100 μM was shown.

AMPKα = assay: Measurement of AMPK activation effect (AMPKα Thr172 phosphorylation immunoassay) in MCF7 cells; assay type: cell-based, human; conditions: 24 hours; for AMPK activation effect at 10 μM (%) / AMPK activation effect at 50 μM (%): relative to untreated cells; for AMPK activation effect AC150: concentration at which AMPK activation reached 150%
Procedure: MCF7 cells derived from human breast cancer cells (commercially available from the Korean Cell Line Bank) were used, and the AMPK activation effect of the biguanide derivative was confirmed using an AMPKα immunoassay kit (Invitrogen, Catalog No. KHO0651).
MCF7 cells were cultured in a DMEM medium supplemented with 10% fetal bovine serum. Thereafter, the cultured MCF7 cells were put into a 6-well plate with approximately 5×10^5 cells per well and cultured in an incubator supplied with 5% CO2. Culture media were treated with the derivatives synthesized in the examples at contents of 5, 10 and 50 μM, and then cultured for 24 hours. Metformin hydrochloride was used as the control, and the culture media were treated with 0.05, 0.5, 1, 2, 5 and 10 mM metformin hydrochloride, and then tested in the same manner as described in the derivatives synthesized in the examples. Subsequently, the cells were lysed according to a method presented in the operation manual of the AMPKα immunoassay kit, and 20 μg of a cell lysate was then yielded through protein assay. Thereafter, the AMPK activation effect was obtained by determining the degree of phosphorylation of 172nd threonine residue (Thr172) of the AMPKα from the cell lysate according to the method presented in the operation manual of the AMPKα immunoassay kit. […] A curve graph showing AMPK activation according to the concentration of the treated compounds was plotted based on the obtained AMPKα activation results, the concentration (activation concentration 150, AC150) value of the compound whose AMPK activation reached 150% was calculated using a GraphPad Prism 5.0 program, and the degrees of AMPK activation were obtained when concentrations of the treated biguanide derivatives were 10 μM and 50 μM and the metformin hydrochloride was 50 μM

Structure (SMILES) | inhibition at 100 µM (HCT116 cells) | GI50 (HCT116 cells) | AMPK activation effect at 10 μM (%) (AMPKα) | AMPK activation effect at 50 μM (%) (AMPKα) | AMPK activation effect AC150 (AMPKα) | melting point
Cl.N=C(NC(=N)N1CCOCC1)Nc1ccc(OC(F)(F)F)cc1 [Example 34, N1-morpholine-N5-(4-trifluoromethoxy)phenyl biguanide hydrochloride] | 98% | 47.3 µM | 121% | 168% | 33.7 µM | 263 to 264 °C
Cl.N=C(NC(=N)N1CCCC1)Nc1ccc(Cl)cc1 [Example 17, N1-pyrrolidine-N5-(4-chloro)phenyl biguanide hydrochloride] | 97.4% | 48.2 µM | 167% | 512% | 8.4 µM | 260 to 261 °C
CC(=O)Nc1ccc(NC(=N)NC(=N)N2CCCCC2)cc1.Cl [Example 38, N1-piperidine-N5-(4-acetamide)phenyl biguanide hydrochloride] | 0% | > 100 µM | 94% | 144% | >50 µM | 258 to 260 °C
COc1cccc(NC(=N)NC(=N)N2CCCCC2)c1.Cl [Example 13, N1-piperidine-N5-(3-methoxy)phenyl biguanide hydrochloride] | 45.4% | > 100 µM | 97% | 300% | 16.0 µM | 230 to 232 °C
COc1cc(NC(=N)NC(=N)N2CCCCC2)cc(OC)c1.Cl [Example 45, N1-piperidine-N5-(3,5-dimethoxy)phenyl biguanide hydrochloride] | 41.3% | > 100 µM | 232% | 249% | 2.7 µM | 234 to 236 °C
Cl.N=C(NC(=N)N1CCCCC1)Nc1cc(Br)cc(OC(F)(F)F)c1 [Example 67, N1-piperidine-N5-(3-bromo-5-trifluoromethoxy)phenyl biguanide hydrochloride] | 97.1% | 2.9 µM |  |  | 5.0 µM | 205 to 207 °C
CCc1cccc(NC(=N)NC(=N)N2CCCCC2)c1.Cl [Example 10, N1-piperidine-N5-(3-ethyl)phenyl biguanide hydrochloride] | 97.4% | 27.3 µM | 178% | 598% | 7.3 µM | 225 to 227 °C
Cl.N=C(NC(=N)N1CCCCC1)Nc1ccc(F)cc1 [Example 14, N1-piperidine-N5-(4-fluoro)phenyl biguanide hydrochloride] | 49.7% | > 100 µM | 204% | 429% | 4.0 µM | 269 to 270 °C
CC(=O)Nc1cccc(NC(=N)NC(=N)N2CCCCC2)c1.Cl [Example 39, N1-piperidine-N5-(3-acetamide)phenyl biguanide hydrochloride] | 25.5% | > 100 µM | 100% | 145% | >50 µM | 265 to 267 °C
Cl.N=C(NC(=N)N1CCCCC1)Nc1cccc(N)c1 [Example 36, N1-piperidine-N5-(3-amino)phenyl biguanide hydrochloride] | 43.6% | > 100 µM | 62% | 175% | 36.8 µM | 220 to 222 °C
Cl.N=C(NC(=N)N1CCCCC1)Nc1ccc(Cl)c(C(F)(F)F)c1 [Example 47, N1-piperidine-N5-(4-chloro-3-trifluoromethyl)phenyl biguanide hydrochloride] | 96.7% | 1.9 µM | 169% |  | 7.3 µM | 269 to 270 °C
Cl.N=C(NC(=N)N1CCC1)Nc1ccc(C(F)(F)F)cc1 [Example 25, N1-azetidine-N5-(4-trifluoromethyl)phenyl biguanide hydrochloride] | 96.3% | 27.6 µM | 99% | 156% | 46.6 µM | 258 to 259 °C
CSc1ccc(NC(=N)NC(=N)N2CCCCC2)cc1.Cl [Example 43, N1-piperidine-N5-(4-methylthio)phenyl biguanide hydrochloride] | 98% | 37.1 µM | 239% | 547% | 4.1 µM | 264 to 265 °C
Cl.N=C(NC(=N)N1CCCCC1)Nc1ccc(F)c(C(F)(F)F)c1 [Example 46, N1-piperidine-N5-(4-fluoro-3-trifluoromethyl)phenyl biguanide hydrochloride] | 97% | 5.6 µM | 261% |  | 1.3 µM | 269 to 270 °C
Cl.N=C(NC(=N)N1CCCCC1)Nc1ccccc1 [Example 8, N1-piperidine-N5-phenyl biguanide hydrochloride] | 77.6% | 56.8 µM |  | 347% | 10.1 µM | 204 to 206 °C
Cl.N=C(NC(=N)N1CCCCC1)Nc1cc(Cl)cc(OC(F)(F)F)c1 [Example 65, N1-piperidine-N5-(3-chloro-5-trifluoromethoxy)phenyl biguanide hydrochloride] | 97.3% | 3.6 µM |  |  | 5.0 µM | 208 to 209 °C
Cl.N=C(NC(=N)N1CCCC1)Nc1cccc(Cl)c1 [Example 19, N1-pyrrolidine-N5-(3-chloro)phenyl biguanide hydrochloride] | 74% | 55.9 µM | 176% | 586% | 4.4 µM | 170 to 172 °C
Cl.N=C(NC(=N)N1CCCCC1)Nc1ccc(Cl)cc1 [Example 18, N1-piperidine-N5-(4-chloro)phenyl biguanide hydrochloride] | 97.7% | 17 µM | 281% |  | 3.4 µM | 275 to 276 °C
Cl.N=C(NC(=N)N1CCCC1)Nc1cccc(OC(F)(F)F)c1 [Example 28, N1-pyrrolidine-N5-(3-trifluoromethoxy)phenyl biguanide hydrochloride] | 97.6% | 19 µM | 158% | 424% | 6.9 µM | 261 to 262 °C
Cl.N=C(NC(=N)N1CCCCC1)Nc1cccc(O)c1 [Example 11, N1-piperidine-N5-(3-hydroxy)phenyl biguanide hydrochloride] | 29.7% | > 100 µM | 127% | 127% | >50 µM | 210 to 212 °C
